Measurements from ChEMBL document CHEMBL1201862, “PubChem BioAssay data set” (2004).
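Step 1: Grow cells in 96-well plates. Step 2: Expose to compound for 48 hours at 5 concentrations. Step 3: Interpolate endpoints linearly; if unreached, use highest concentration. GI50 is the concentration that inhibits growth by half.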 The source made the active and inactive calls. No stated cut-off is given here; in the data, active = GI50 up to about 1.1 µM and inactive = higher.

Experiments:
Experiment in all cases: growth of human tumour cells (NCI), 48 h
[1] = test system: 786-0
[2] = test system: A498
[3] = test system: A549
[4] = test system: ACHN
[5] = test system: BT-549
[6] = test system: CAKI-1
[7] = test system: CCRF-CEM
[8] = test system: COLO 205
[9] = test system: DU-145
[10] = test system: HCC 2998
[11] = test system: HCT-116
[12] = test system: HCT-15
[13] = test system: HL-60
[14] = test system: HOP-92
[15] = test system: K562
[16] = test system: LOX IMVI
[17] = test system: MDA-MB-231
[18] = test system: MDA-MB-435
[19] = test system: MDA-N
[20] = test system: NCI-H23
[21] = test system: NCI-H460
[22] = test system: OVCAR-4
[23] = test system: RPMI-8226
[24] = test system: RXF 393
[25] = test system: SF-295
[26] = test system: SK-MEL-28
[27] = test system: SK-MEL-5
[28] = test system: SK-OV-3
[29] = test system: SN12C
[30] = test system: SNB-19
[31] = test system: SR
[32] = test system: SW-620
[33] = test system: T47D
[34] = test system: TK-10
[35] = test system: U-251
[36] = test system: UACC-257
[37] = test system: UACC-62
[38] = test system: UO-31
[39] = test system: EKVX
[40] = test system: HOP-62
[41] = test system: HT-29
[42] = test system: Hs-578T
[43] = test system: IGROV-1
[44] = test system: KM12
[45] = test system: M14
[46] = test system: MCF7
[47] = test system: MOLT-4
[48] = test system: Malme-3M
[49] = test system: NCI-H226
[50] = test system: NCI-H522
[51] = test system: NCI/ADR-RES
[52] = test system: OVCAR-3
[53] = test system: OVCAR-5
[54] = test system: OVCAR-8
[55] = test system: PC-3
[56] = test system: SF-268
[57] = test system: SF-539
[58] = test system: SK-MEL-2
[59] = test system: SNB-75

In the case of `Nc1nc2c(c(=O)[nH]1)C(c1ccc(Cl)cc1)C=C(c1ccccc1)N2` (configuration not stated), the GI50 [1] is reported as 25.4 µM (inactive), the GI50 [2] is reported as 54.5 µM (inactive) and the GI50 [3] is reported as 25.9 µM (inactive). The GI50 [4] was 75.3 µM (inactive), the GI50 [5] was 35.1 µM (inactive) and the GI50 [6] was 91.4 µM (inactive). The GI50 [7] was 24.8 µM (inactive), the GI50 [8] was 19.1 µM (inactive) and the GI50 [9] was 29.4 µM (inactive). For the same compound, the GI50 [10] was 15.3 µM (inactive), the GI50 [11] was 16.3 µM (inactive) and the GI50 [12] was 34.7 µM. For the same compound, the GI50 [13] was 30.8 µM (inactive), the GI50 [14] was 20.4 µM (inactive) and the GI50 [15] was 20.6 µM (inactive). The GI50 [16] was 45.3 µM (inactive), the GI50 [17] was 20.9 µM (inactive) and the GI50 [18] was 15 µM (inactive). The GI50 [19] was 18.6 µM (inactive), the GI50 [20] was 24.4 µM (inactive) and the GI50 [21] was 20.4 µM (inactive). The GI50 [22] was 21.6 µM (inactive), the GI50 [23] was 18.4 µM (inactive) and the GI50 [24] was 43.6 µM (inactive). The GI50 [25] was 26.7 µM (inactive), the GI50 [26] was 22.6 µM (inactive) and the GI50 [27] was 19.9 µM (inactive). The GI50 [28] was 23.8 µM (inactive), the GI50 [29] was 19.9 µM (inactive) and the GI50 [30] was 37.9 µM (inactive). For the same compound, the GI50 [31] was 19.4 µM (inactive), the GI50 [32] was 18.1 µM (inactive) and the GI50 [33] was 21.8 µM (inactive). The GI50 [34] was 51.6 µM (inactive), the GI50 [35] was 17.8 µM (inactive) and the GI50 [36] was 54.8 µM (inactive). The GI50 [37] was 27.4 µM (inactive) and the GI50 [38] was 92.7 µM (inactive).
With `Cc1nc(C(N)=S)sc1C(=O)C/C(=N/N)C(=O)Nc1ccc(Cl)cc1` the GI50 [1] was 40.6 µM (inactive), the GI50 [3] was > 100 µM (inactive) and the GI50 [4] was 44.6 µM (inactive). The GI50 [5] was > 100 µM (inactive), the GI50 [6] was > 100 µM (inactive) and the GI50 [39] was 52.8 µM (inactive). The GI50 [10] was > 100 µM (inactive), the GI50 [11] was > 100 µM (inactive) and the GI50 [12] was over 10 µM. For the same compound, the GI50 [40] was 50.8 µM (inactive), the GI50 [41] was 58.3 µM (inactive) and the GI50 [42] was 39.1 µM (inactive). For the same compound, the GI50 [43] was 16.5 µM (inactive), the GI50 [15] was 31.3 µM (inactive) and the GI50 [44] was 77.1 µM (inactive). The GI50 [16] was 82.8 µM (inactive), the GI50 [45] was > 100 µM (inactive) and the GI50 [46] was 43.1 µM (inactive). For the same compound, the GI50 [17] was > 100 µM (inactive), the GI50 [18] was > 100 µM (inactive) and the GI50 [19] was > 100 µM (inactive). The GI50 [47] was 45.8 µM (inactive), the GI50 [48] was > 100 µM (inactive) and the GI50 [49] was > 100 µM (inactive). For the same compound, the GI50 [20] was 57.9 µM (inactive), the GI50 [21] was 55.5 µM (inactive) and the GI50 [50] was 31 µM (inactive). The GI50 [51] was 60.4 µM (inactive), the GI50 [52] was 37.5 µM (inactive) and the GI50 [22] was 78.3 µM (inactive). The GI50 [53] was > 100 µM (inactive), the GI50 [54] was 84.1 µM (inactive) and the GI50 [55] was 72.9 µM (inactive). For the same compound, the GI50 [23] was 38.2 µM (inactive), the GI50 [24] was > 100 µM (inactive) and the GI50 [56] was > 100 µM (inactive). For the same compound, the GI50 [25] was 84.9 µM (inactive), the GI50 [57] was > 100 µM (inactive) and the GI50 [26] was > 100 µM (inactive). For the same compound, the GI50 [58] was > 100 µM (inactive), the GI50 [27] was 90.2 µM (inactive) and the GI50 [28] was > 100 µM (inactive). For the same compound, the GI50 [29] was > 100 µM (inactive), the GI50 [30] was 72.4 µM (inactive) and the GI50 [59] was > 100 µM (inactive). For the same compound, the GI50 [31] was > 100 µM (inactive), the GI50 [32] was > 100 µM (inactive) and the GI50 [33] was 46.1 µM (inactive). The GI50 [34] was > 100 µM (inactive), the GI50 [35] was 99.5 µM (inactive) and the GI50 [36] was > 100 µM (inactive). The GI50 [37] was > 100 µM (inactive) and the GI50 [38] was 70.6 µM (inactive).
For `O=c1ccn(C2OC(CO)C(O)C2[Se]c2ccccc2)c(=O)[nH]1` (configuration not stated), the GI50 [1] was > 100 µM (inactive), the GI50 [2] was > 100 µM (inactive) and the GI50 [3] was > 100 µM (inactive). The GI50 [4] was > 100 µM (inactive), the GI50 [5] was > 100 µM (inactive) and the GI50 [6] was > 100 µM (inactive). For the same compound, the GI50 [7] was > 100 µM (inactive), the GI50 [8] was > 100 µM (inactive) and the GI50 [9] was > 100 µM (inactive). For the same compound, the GI50 [39] was > 100 µM (inactive), the GI50 [10] was 92.3 µM (inactive) and the GI50 [11] was > 100 µM (inactive). The GI50 [12] was over 100 µM, the GI50 [13] was > 100 µM (inactive) and the GI50 [40] was > 100 µM (inactive). The GI50 [14] was > 100 µM (inactive), the GI50 [41] was > 100 µM (inactive) and the GI50 [42] was > 100 µM (inactive). For the same compound, the GI50 [43] was > 100 µM (inactive), the GI50 [15] was > 100 µM (inactive) and the GI50 [44] was > 100 µM (inactive). The GI50 [16] was > 100 µM (inactive), the GI50 [45] was > 100 µM (inactive) and the GI50 [46] was > 100 µM (inactive). The GI50 [17] was > 100 µM (inactive), the GI50 [18] was > 100 µM (inactive) and the GI50 [19] was > 100 µM (inactive). For the same compound, the GI50 [47] was > 100 µM (inactive), the GI50 [48] was > 100 µM (inactive) and the GI50 [49] was > 100 µM (inactive). The GI50 [20] was > 100 µM (inactive), the GI50 [21] was > 100 µM (inactive) and the GI50 [50] was 99.1 µM (inactive). For the same compound, the GI50 [51] was > 100 µM (inactive), the GI50 [52] was > 100 µM (inactive) and the GI50 [22] was > 100 µM (inactive). For the same compound, the GI50 [53] was > 100 µM (inactive), the GI50 [54] was > 100 µM (inactive) and the GI50 [55] was > 100 µM (inactive). The GI50 [56] was > 100 µM (inactive), the GI50 [25] was > 100 µM (inactive) and the GI50 [57] was > 100 µM (inactive). The GI50 [26] was > 100 µM (inactive), the GI50 [58] was > 100 µM (inactive) and the GI50 [27] was > 100 µM (inactive). For the same compound, the GI50 [28] was > 100 µM (inactive), the GI50 [29] was > 100 µM (inactive) and the GI50 [30] was > 100 µM (inactive). For the same compound, the GI50 [59] was > 100 µM (inactive), the GI50 [31] was > 100 µM (inactive) and the GI50 [32] was > 100 µM (inactive). For the same compound, the GI50 [34] was 0.24 µM (active), the GI50 [35] was > 100 µM (inactive) and the GI50 [36] was 2.77 µM (inactive). For the same compound, the GI50 [37] was 0.353 µM (active) and the GI50 [38] was > 100 µM (inactive).
